Counter-ions that a name gives are not always drawn. Starred links: 1 amine or outer side, 2 acyl side, 3 side chain; linkers in the order of their positions; H or OH if unused. Non-standard residues stand in square brackets, D forms with d. Residues, ends and D or L forms follow the SMILES beside them. *: point of attachment. NMeVal(N-(CH2)3COOH) = CC(C)[C@@H](C(=O)*)N(C)CCCC(=O)O; Dolaproine = CO[C@@H]([C@@H]1CCCN1)[C@@H](C)C(=O)O; X4 = O=C([C@]1(N[*:1])C[C@H]1c1ccccc1)[*:2]; Dil = CC[C@H](C)[C@H](NC)[C@@H](CC(=O)O)OC; X7 = COC(=O)CCCN(C)[C@H](C(=O)*)C(C)C; αMeF = C[C@](N)(Cc1ccccc1)C(=O)O; X5 = CC(C)[C@@H](C(=O)*)N(C)CCO; Oxazinan2yl(1,2) = C1CCN(*)OC1; NMeV = CN[C@H](C(=O)O)C(C)C; X3 = c1ccc2c(c1)CON(*)C2; X6 = C1=CC2CCC1ON2*
Experiments:
[1] = Plasma stability in vitro, rat plasma; format: in vitro ADME; settings: male, Wistar, rat plasma (Li heparin), 37° C., Method A (HPLC)
Procedure: B-4. Determination of the Plasma Stability in vitro:
1 mg of the test substance in question was dissolved in 0.5 ml of acetonitrile/DMSO (9:1). From this solution, 20 μl were removed and added to 1 ml of rat or human plasma at 37° C. (plasma of male Wistar rats with Li heparin from Harlan & Winkelmann or fresh human leukocyte-depleted plasma originating from a whole blood sample). From this plasma solution, which was shaken vigorously, 100 μl aliquots were removed immediately after addition of the sample (initial value as reference) and then after 5, 10, 30, 60, 120, 180 and 240 minutes and optionally after 24 hours and added to 300 μl of acetonitrile. The precipitated plasma proteins were removed by centrifugation at 5000 rpm for 10 minutes, and 30 μl of the supernatant were analysed by HPLC for its content of unmodified test substance. Quantification was via the area percentages of the corresponding peaks.
HPLC Method for Rat Plasma:
Instrument: Agilent 1200 with DAD, binary pump, autosampler, column oven and thermostat; column: Kromasil 100 C18, 250 mm×4 mm, […]; column temperature: 45° C.; mobile phase A: 5 ml of perchloric acid/1 of water, mobile phase B: acetonitrile; gradient: 0-8 min 98% A, 2% B; 8-15 min 56% A, 44% B; […] 10% A, 90% B; 20-21 min 10% A, 90% B; […] 98% A, 2% B; […] 98% A, 2% B; flow rate: 2 ml/min; UV detection: 220 nm.
The test substance was incubated in rat or human plasma at 37° C. over a period of 5 h with gentle stirring. At different points in time (0, 2, 5, 10, 20, 30, 60, 120, 180 and 300 minutes), a 100 μl aliquot was removed. Following addition of internal standard (10 μl), the proteins were precipitated by addition of 200 μl of acetonitrile and the mixture was centrifuged in an Eppendorf centrifuge for 5 minutes. After addition of 150 μl of ammonium acetate buffer pH 3 to 150 μl of the supernatant, the content of unmodified test substance was analysed by LC/MSMS.

[2] = tested on: human colon carcinoma cell line HT29 wt (wild type); test: Antiproliferative effect on the HT29 wt cell line (MTT assay); format: cell-based; settings: 10% FCS, incubation 48 h to 96 h
Procedure: B-2. Determination of the Antiproliferative Effect on the HT29 Wt Cell Line:
A defined cell number of the human colon carcinoma cell line HT29 wt (wild type) was sown in a 96-well microtiter plate in complete medium (10% FCS-RPMI) (2500 cells/well) and incubated at 37° C./5% CO2 overnight. After 18 h, the sowing medium was replaced by fresh medium with 10% FCS. Treatment was initiated by addition of the respective test substance. From the substances to be investigated, dose/activity curves in a concentration range of from 10^−5 M to 10^−14 M (1:10-dilution series) were determined. The chosen incubation times were from 48 h to 96 h. Pro-liferation was determined with the aid of the MTT assays (ATCC, Manassas, Va., USA, catalogue No. 30-1010K). After the incubation time, the MTT reagent was incubated with the cells for 4 h, and the cells were subsequently lysed by adding the detergent overnight. The dye formed was detected at 570 nm. Proliferation of cells which had not been treated with test substance, but had otherwise been treated identically, was defined as 100%. The data obtained from this test are triple determinations, and at least two independent experiments were carried out.

[3] = tested on: human renal cancer cell line 786-0; test: Antiproliferative effect on the 786-0 RCC cell line (MTT assay); format: cell-based; settings: incubation 48 h to 96 h
Procedure: B-1. Determination of the Antiproliferative Effect on the 786-0 RCC Cell Line:
A defined cell number of the human renal cancer cell line 786-0 was sown in a 96-well microtiter plate in complete medium (2500 or 7000 cells/well) and incubated at 37° C./5% CO2 overnight. After 18 h, the sowing medium was replaced by serum-free medium or medium with 2% FCS. Treatment was initiated by addition of the respective test substance in varying concentration (10^−5 M to […]). The chosen incubation times were from 48 h to 96 h. Proliferation was determined with the aid of the MTT assays (ATCC, Manassas, Va., USA, catalogue No. 30-1010K). After the incubation time, the MTT reagent was incubated with the cells for 4 h, and the cells were subsequently lysed by adding the detergent overnight. The dye formed was detected at 570 nm. […] The data obtained from this test are triple determinations, and at least two independent experiments were carried out.

[4] = Homo sapiens, HT-29, HT29 wt cells
[5] = Homo sapiens, 786-0, 786-0 cells

Row | SMILES | IC50 [2, 4] [nM] | IC50 [3, 5] [nM] | also measured
1 | CC[C@H](C)[C@@H]([C@@H](CC(=O)N1CCC[C@H]1[C@H](OC)[C@@H](C)C(=O)N[C@@](C)(Cc1ccccc1)C(=O)N1CCCCO1)OC)N(C)C(=O)[C@@H](NC(=O)[C@@H](NC)C(C)C)C(C)C [Example 22, N-Methyl-L-valyl-N-[(3R,4S,5S)-3-methoxy-1-{(2S)-2-[(1R,2R)-1-methoxy-2-methyl-3-{[(2S)-2-methyl-1-(1,2-oxazinan-2-yl)-1-oxo-3-phenylpropan-2-yl]amino}-3-oxopropyl]pyrrolidin-1-yl}-5-methyl-1-oxoheptan-4-yl]-N-methyl-L-valinamide, trifluoroacetic acid salt] (H-[NMeV]V[Dil][Dolaproine][αMeF]-{Oxazinan2yl(1,2)}) | – | – | half-life at 39.2 µg/ml [1]: 2 h
2 | CC[C@H](C)[C@@H]([C@@H](CC(=O)N1CCC[C@H]1[C@H](OC)[C@@H](C)C(=O)N[C@@H](Cc1ccccc1)C(=O)N1CCCCO1)OC)N(C)C(=O)[C@@H](NC(=O)[C@H](C(C)C)N(C)CCO)C(C)C [Example 2, N-(2-Hydroxyethyl)-N-methyl-L-valyl-N-[(3R,4S,5S)-3-methoxy-1-{(2S)-2-[(1R,2R)-1-methoxy-2-methyl-3-{[(2S)-1-(1,2-oxazinan-2-yl)-1-oxo-3-phenylpropan-2-yl]amino}-3-oxopropyl]pyrrolidin-1-yl}-5-methyl-1-oxoheptan-4-yl]-N-methyl-L-valinamide] (X5-V[Dil][Dolaproine]F-{Oxazinan2yl(1,2)}) | 0.5 | – | –
3 | CC[C@H](C)[C@@H]([C@@H](CC(=O)N1CCC[C@H]1[C@H](OC)[C@@H](C)C(=O)N[C@@H](Cc1c[nH]c2ccccc12)C(=O)N1CCCCO1)OC)N(C)C(=O)[C@@H](NC(=O)[C@@H](NC)C(C)C)C(C)C [Example 9, N-Methyl-L-valyl-N-[(3R,4S,5S)-1-{(2S)-2-[(1R,2R)-3-{[(2S)-3-(1H-indol-3-yl)-1-(1,2-oxazinan-2-yl)-1-oxopropan-2-yl]amino}-1-methoxy-2-methyl-3-oxopropyl]pyrrolidin-1-yl}-3-methoxy-5-methyl-1-oxoheptan-4-yl]-N-methyl-L-valinamide, trifluoroacetic acid salt] (H-[NMeV]V[Dil][Dolaproine]W-{Oxazinan2yl(1,2)}) | 1.4 | 3 | –
4 | CC[C@H](C)[C@@H]([C@@H](CC(=O)N1CCC[C@H]1[C@H](OC)[C@@H](C)C(=O)N[C@@H](Cc1ccccc1)C(=O)N1Cc2ccccc2CO1)OC)N(C)C(=O)[C@@H](NC(=O)[C@@H](NC)C(C)C)C(C)C [Example 8, N-Methyl-L-valyl-N-[(3R,4S,5S)-1-{(2S)-2-[(1R,2R)-3-{[(2S)-1-(1,4-dihydro-3H-2,3-benzoxazin-3-yl)-1-oxo-3-phenylpropan-2-yl]amino}-1-methoxy-2-methyl-3-oxopropyl]pyrrolidin-1-yl}-3-methoxy-5-methyl-1-oxoheptan-4-yl]-N-methyl-L-valinamide, trifluoroacetic acid salt] (H-[NMeV]V[Dil][Dolaproine]F-X3) | – | 2.4 | –
5 | CC[C@H](C)[C@@H]([C@@H](CC(=O)N1CCC[C@H]1[C@H](OC)[C@@H](C)C(=O)N[C@@H](Cc1ccccc1)C(=O)O)OC)N(C)C(=O)[C@@H](NC(=O)[C@@H](NC)C(C)C)C(C)C [MMAF, Monomethylauristatin F, reference compound] (H-[NMeV]V[Dil][Dolaproine]F-OH) | – | – | IC50 ([3]; 786-0 cells): 260 nM; IC50 ([2]; HT29 wt cells): 10 nM
6 | CC[C@H](C)[C@@H]([C@@H](CC(=O)N1CCC[C@H]1[C@H](OC)[C@@H](C)C(=O)N[C@@H](Cc1ccccc1)C(=O)N1CCCCO1)OC)N(C)C(=O)[C@@H](NC(=O)[C@H](C(C)C)N(C)CCCC(=O)O)C(C)C [Example 24, N-(3-Carboxypropyl)-N-methyl-L-valyl-N-[(3R,4S,5S)-3-methoxy-1-{(2S)-2-[(1R,2R)-1-methoxy-2-methyl-3-{[(2S)-1-(1,2-oxazinan-2-yl)-1-oxo-3-phenylpropan-2-yl]amino}-3-oxopropyl]-pyrrolidin-1-yl}-5-methyl-1-oxoheptan-4-yl]-N-methyl-L-valinamide] ({NMeVal(N-(CH2)3COOH)}-V[Dil][Dolaproine]F-{Oxazinan2yl(1,2)}) | 1.5 | 5 | –
7 | CC[C@H](C)[C@@H]([C@@H](CC(=O)N1CCC[C@H]1[C@H](OC)[C@@H](C)C(=O)N[C@@]1(C(=O)N2CCCCO2)C[C@H]1c1ccccc1)OC)N(C)C(=O)[C@@H](NC(=O)[C@@H](NC)C(C)C)C(C)C [Example 16, N-Methyl-L-valyl-N-[(3R,4S,5S)-3-methoxy-1-{(2S)-2-[(1R,2R)-1-methoxy-2-methyl-3-{[(1S,2S)-1-(1,2-oxazinan-2-ylcarbonyl)-2-phenylcyclopropyl]amino}-3-oxopropyl]pyrrolidin-1-yl}-5-methyl-1-oxoheptan-4-yl]-N-methyl-L-valinamide, trifluoroacetic acid salt] (H-[NMeV]V[Dil][Dolaproine][X4]-{Oxazinan2yl(1,2)}) | – | 8 | half-life at 39.2 µg/ml [1]: 0.75 h
8 | CC[C@H](C)[C@@H]([C@@H](CC(=O)N1CCC[C@H]1[C@H](OC)[C@@H](C)C(=O)N[C@@H](Cc1ccccc1)C(=O)N1OC2C=CC1CC2)OC)N(C)C(=O)[C@@H](NC(=O)[C@@H](NC)C(C)C)C(C)C (stereo partly drawn) [Example 6, N-Methyl-L-valyl-N-[(3R,4S,5S)-3-methoxy-1-{(2S)-2-[(1R,2R)-1-methoxy-2-methyl-3-{[(2S)-1-(2-oxa-3-azabicyclo[2.2.2]oct-5-en-3-yl)-1-oxo-3-phenylpropan-2-yl]amino}-3-oxopropyl]pyrrolidin-1-yl}-5-methyl-1-oxoheptan-4-yl]-N-methyl-L-valinamide, trifluoroacetic acid salt] (H-[NMeV]V[Dil][Dolaproine]F-X6) | – | 0.5 | –
9 | CC[C@H](C)[C@@H]([C@@H](CC(=O)N1CCC[C@H]1[C@H](OC)[C@@H](C)C(=O)N[C@@H](Cc1ccccc1)C(=O)N1CCCCO1)OC)N(C)C(=O)[C@@H](NC(=O)[C@H](C(C)C)N(C)CCCC(=O)OC)C(C)C [Example 29, N-(4-Methoxy-4-oxobutyl)-N-methyl-L-valyl-N-[(3R,4S,5S)-3-methoxy-1-{(2S)-2-[(1R,2R)-1-methoxy-2-methyl-3-{[(2S)-1-(1,2-oxazinan-2-yl)-1-oxo-3-phenylpropan-2-yl]amino}-3-oxopropyl]pyrrolidin-1-yl}-5-methyl-1-oxoheptan-4-yl]-N-methyl-L-valinamide] (X7-V[Dil][Dolaproine]F-{Oxazinan2yl(1,2)}) | 0.1 | – | –
10 | CC[C@H](C)[C@@H]([C@@H](CC(=O)N1CCC[C@H]1[C@H](OC)[C@@H](C)C(=O)N[C@@]1(C(=O)N2CCCCO2)C[C@@H]1c1ccccc1)OC)N(C)C(=O)[C@@H](NC(=O)[C@H](C(C)C)N(C)CCCCCC(=O)O)C(C)C [Example 26, N-(5-Carboxypentyl)-N-methyl-L-valyl-N-[(3R,4S,5S)-3-methoxy-1-{(2S)-2-[(1R,2R)-1-methoxy-2-methyl-3-{[(1S,2R)-1-(1,2-oxazinan-2-ylcarbonyl)-2-phenylcyclopropyl]amino}-3-oxopropyl]-pyrrolidin-1-yl}-5-methyl-1-oxoheptan-4-yl]-N-methyl-L-valinamide] | – | 18 | –

Source: patent US8722629B2, “Auristatin derivatives and use thereof” (Seattle Genetics, Inc., priority 2010, dated 2014)
